Experimental data published in ChEMBL document CHEMBL3885881, “DrugMatrix”.

Species on record: Rattus norvegicus
Assay: DrugMatrix - Regimen: Daily Repeat
Format: toxicity, organism-based, Sprague-Dawley
Set-up: regimen Daily Repeat, gender Male, age 6-8 weeks
Details: in vivo, po, route oral GAVAGE, vehicle .5 % CMC; for BASOPHIL / EOSINOPHIL / ERYTHROCYTE COUNT / HEMATOCRIT / HEMOGLOBIN / LYMPHOCYTE / MEAN CORPUSCULAR HEMOGLOBIN / MEAN CORPUSCULAR HEMOGLOBIN CONCENTRATION / MEAN CORPUSCULAR VOLUME / MONOCYTE / NEUTROPHIL / PLATELET COUNT: tissue Blood; for ALANINE AMINOTRANSFERASE / ALBUMIN / ALKALINE PHOSPHATASE / ASPARTATE AMINOTRANSFERASE / BLOOD UREA NITROGEN / CHLORIDE / CHOLESTEROL / CREATINE PHOSPHOKINASE / CREATININE / GLUCOSE / PHOSPHORUS / POTASSIUM / SODIUM / TOTAL BILIRUBIN / TOTAL PROTEIN: tissue Plasma
[1] = 0 mg/kg, 72 h, dose level Control, time 3 day
[2] = 0 mg/kg, 120 h, dose level Control, time 5 day
[3] = 10 mg/kg, 72 h, dose level Low, time 3 day
[4] = 10 mg/kg, 120 h, dose level Low, time 5 day
[5] = 750 mg/kg, 72 h, dose level High, time 3 day
[6] = 750 mg/kg, 120 h, dose level High, time 5 day

OCCN(CCO)c1nc(N2CCCCC2)c2nc(N(CCO)CCO)nc(N3CCCCC3)c2n1 [DIPYRIDAMOLE]
BASOPHIL [1]: 0% | EOSINOPHIL [1]: 0% | ERYTHROCYTE COUNT [1]: 6.34 x10E6/uL | HEMATOCRIT [1]: 37.62% | HEMOGLOBIN [1]: 14.82 G/DL | LYMPHOCYTE [1]: 87.5% | MEAN CORPUSCULAR HEMOGLOBIN [1]: 23.48 pg | MEAN CORPUSCULAR HEMOGLOBIN CONCENTRATION [1]: 39.5 G/DL | MEAN CORPUSCULAR VOLUME [1]: 59.45 fL | MONOCYTE [1]: 1.67% | NEUTROPHIL [1]: 10.83% | PLATELET COUNT [1]: 1074.83 x10E3/uL | ALANINE AMINOTRANSFERASE [1]: 36.5 u/L | ALBUMIN [1]: 3.9 G/DL | ALKALINE PHOSPHATASE [1]: 370.17 u/L | ASPARTATE AMINOTRANSFERASE [1]: 63.17 u/L | BLOOD UREA NITROGEN [1]: 16.83 mg/dL | CHLORIDE [1]: 99.33 MEQ/L | CHOLESTEROL [1]: 64.33 mg/dL | CREATINE PHOSPHOKINASE [1]: 127 u/L | CREATININE [1]: 0.55 mg/dL | GLUCOSE [1]: 173.5 mg/dL | PHOSPHORUS [1]: 10.08 mg/dL | POTASSIUM [1]: 6.23 MEQ/L | SODIUM [1]: 143.5 MEQ/L | TOTAL BILIRUBIN [1]: 0.52 mg/dL | TOTAL PROTEIN [1]: 6.35 G/DL | BASOPHIL [2]: 0% | EOSINOPHIL [2]: 0.17% | ERYTHROCYTE COUNT [2]: 6.12 x10E6/uL | HEMATOCRIT [2]: 37.08% | HEMOGLOBIN [2]: 14.82 G/DL | LYMPHOCYTE [2]: 83.33% | MEAN CORPUSCULAR HEMOGLOBIN [2]: 24.25 pg | MEAN CORPUSCULAR HEMOGLOBIN CONCENTRATION [2]: 39.97 G/DL | MEAN CORPUSCULAR VOLUME [2]: 60.65 fL | MONOCYTE [2]: 1.5% | NEUTROPHIL [2]: 15% | PLATELET COUNT [2]: 1042.83 x10E3/uL | ALANINE AMINOTRANSFERASE [2]: 46 u/L | ALBUMIN [2]: 3.82 G/DL | ALKALINE PHOSPHATASE [2]: 369.5 u/L | ASPARTATE AMINOTRANSFERASE [2]: 65 u/L | BLOOD UREA NITROGEN [2]: 16.33 mg/dL | CHLORIDE [2]: 100.67 MEQ/L | CHOLESTEROL [2]: 57.17 mg/dL | CREATINE PHOSPHOKINASE [2]: 130 u/L | CREATININE [2]: 0.53 mg/dL | GLUCOSE [2]: 163.33 mg/dL | PHOSPHORUS [2]: 9.53 mg/dL | POTASSIUM [2]: 6.27 MEQ/L | SODIUM [2]: 144.83 MEQ/L | TOTAL BILIRUBIN [2]: 0.55 mg/dL | TOTAL PROTEIN [2]: 6.32 G/DL | BASOPHIL [3]: 0% | EOSINOPHIL [3]: 0.33% | ERYTHROCYTE COUNT [3]: 6.75 x10E6/uL | HEMATOCRIT [3]: 39.77% | HEMOGLOBIN [3]: 15.7 G/DL | LYMPHOCYTE [3]: 90.67% | MEAN CORPUSCULAR HEMOGLOBIN [3]: 23.23 pg | MEAN CORPUSCULAR HEMOGLOBIN CONCENTRATION [3]: 39.53 G/DL | MEAN CORPUSCULAR VOLUME [3]: 58.8 fL | MONOCYTE [3]: 0.33% | NEUTROPHIL [3]: 8.67% | PLATELET COUNT [3]: 1406 x10E3/uL | ALANINE AMINOTRANSFERASE [3]: 42.67 u/L | ALBUMIN [3]: 4.03 G/DL | ALKALINE PHOSPHATASE [3]: 406.33 u/L | ASPARTATE AMINOTRANSFERASE [3]: 71.33 u/L | BLOOD UREA NITROGEN [3]: 15.67 mg/dL | CHLORIDE [3]: 100.33 MEQ/L | CHOLESTEROL [3]: 71 mg/dL | CREATINE PHOSPHOKINASE [3]: 229.67 u/L | CREATININE [3]: 0.53 mg/dL | GLUCOSE [3]: 148.67 mg/dL | PHOSPHORUS [3]: 11.33 mg/dL | POTASSIUM [3]: 6.33 MEQ/L | SODIUM [3]: 144.33 MEQ/L | TOTAL BILIRUBIN [3]: 0.27 mg/dL | TOTAL PROTEIN [3]: 6.57 G/DL | BASOPHIL [4]: 0% | EOSINOPHIL [4]: 0.5% | ERYTHROCYTE COUNT [4]: 6.79 x10E6/uL | HEMATOCRIT [4]: 39% | HEMOGLOBIN [4]: 15.6 G/DL | LYMPHOCYTE [4]: 87% | MEAN CORPUSCULAR HEMOGLOBIN [4]: 23 pg | MEAN CORPUSCULAR HEMOGLOBIN CONCENTRATION [4]: 40.05 G/DL | MEAN CORPUSCULAR VOLUME [4]: 57.45 fL | MONOCYTE [4]: 0.5% | NEUTROPHIL [4]: 12% | PLATELET COUNT [4]: 1171.5 x10E3/uL | ALANINE AMINOTRANSFERASE [4]: 35 u/L | ALBUMIN [4]: 3.8 G/DL | ALKALINE PHOSPHATASE [4]: 332.33 u/L | ASPARTATE AMINOTRANSFERASE [4]: 57 u/L | BLOOD UREA NITROGEN [4]: 15 mg/dL | CHLORIDE [4]: 100.67 MEQ/L | CHOLESTEROL [4]: 70.33 mg/dL | CREATINE PHOSPHOKINASE [4]: 146.33 u/L | CREATININE [4]: 0.6 mg/dL | GLUCOSE [4]: 207 mg/dL | PHOSPHORUS [4]: 11.67 mg/dL | POTASSIUM [4]: 5.6 MEQ/L | SODIUM [4]: 143.67 MEQ/L | TOTAL BILIRUBIN [4]: 0.43 mg/dL | TOTAL PROTEIN [4]: 6.33 G/DL | BASOPHIL [5]: 0% | EOSINOPHIL [5]: 0.33% | ERYTHROCYTE COUNT [5]: 6.25 x10E6/uL | HEMATOCRIT [5]: 37.2% | HEMOGLOBIN [5]: 14.47 G/DL | LYMPHOCYTE [5]: 88.33% | MEAN CORPUSCULAR HEMOGLOBIN [5]: 23.2 pg | MEAN CORPUSCULAR HEMOGLOBIN CONCENTRATION [5]: 38.9 G/DL | MEAN CORPUSCULAR VOLUME [5]: 59.57 fL | MONOCYTE [5]: 1% | NEUTROPHIL [5]: 10.33% | PLATELET COUNT [5]: 1166.33 x10E3/uL | ALANINE AMINOTRANSFERASE [5]: 38 u/L | ALBUMIN [5]: 3.6 G/DL | ALKALINE PHOSPHATASE [5]: 276.67 u/L | ASPARTATE AMINOTRANSFERASE [5]: 56.33 u/L | BLOOD UREA NITROGEN [5]: 13.33 mg/dL | CHLORIDE [5]: 99 MEQ/L | CHOLESTEROL [5]: 75.67 mg/dL | CREATINE PHOSPHOKINASE [5]: 140 u/L | CREATININE [5]: 0.53 mg/dL | GLUCOSE [5]: 163.67 mg/dL | PHOSPHORUS [5]: 11.63 mg/dL | POTASSIUM [5]: 6.2 MEQ/L | SODIUM [5]: 143 MEQ/L | TOTAL BILIRUBIN [5]: 0.3 mg/dL | TOTAL PROTEIN [5]: 5.77 G/DL | BASOPHIL [6]: 0% | EOSINOPHIL [6]: 0% | ERYTHROCYTE COUNT [6]: 6.47 x10E6/uL | HEMATOCRIT [6]: 38.13% | HEMOGLOBIN [6]: 15 G/DL | LYMPHOCYTE [6]: 90.33% | MEAN CORPUSCULAR HEMOGLOBIN [6]: 23.2 pg | MEAN CORPUSCULAR HEMOGLOBIN CONCENTRATION [6]: 39.33 G/DL | MEAN CORPUSCULAR VOLUME [6]: 58.97 fL | MONOCYTE [6]: 0.33% | NEUTROPHIL [6]: 9.33% | PLATELET COUNT [6]: 1245.33 x10E3/uL | ALANINE AMINOTRANSFERASE [6]: 40 u/L | ALBUMIN [6]: 3.73 G/DL | ALKALINE PHOSPHATASE [6]: 320.33 u/L | ASPARTATE AMINOTRANSFERASE [6]: 55 u/L | BLOOD UREA NITROGEN [6]: 13.33 mg/dL | CHLORIDE [6]: 98.33 MEQ/L | CHOLESTEROL [6]: 72 mg/dL | CREATINE PHOSPHOKINASE [6]: 136.67 u/L | CREATININE [6]: 0.57 mg/dL | GLUCOSE [6]: 158 mg/dL | PHOSPHORUS [6]: 10.37 mg/dL | POTASSIUM [6]: 6.03 MEQ/L | SODIUM [6]: 144 MEQ/L | TOTAL BILIRUBIN [6]: 0.4 mg/dL | TOTAL PROTEIN [6]: 5.97 G/DL
